Tests used:
Format in all cases: cell-based
[1] = system: HCC827-SVD cells (human EGFR exon 20 insertion mutant D770_N771 insSVD); assay: Cell growth inhibition (CellTiter-Glo, 3 days) in HCC827-SVD; details: 72 h, 3 days after administration
How it was run: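 HCC827 cells carrying lentiviral codon-optimized EGFR D770_N771 insSVD, with endogenous EGFR knocked out by CRISPR (single clone), seeded at 5000 cells/well in RPMI with 10% FBS. Viability read by CellTiter-Glo luminescence.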

[2] = system: HCC827-YVMA cells (human ERBB2 exon20 insertion mutant A775_G776ins YVMA); assay: Cell growth inhibition (CellTiter-Glo, 3 days) in HCC827-YVMA; details: 72 h, 3 days after administration
How it was run: (§1)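 HCC827 cells lentivirally transduced with codon-optimized ASV or YVMA insertion mutants were seeded at 5000 cells/well in RPMI with 10% FBS and incubated overnight. Compound was added at various concentrations from a 10× stock in medium, with 3 days' incubation. Viability read by CellTiter-Glo luminescence.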

A431 cells = assay: Cell growth inhibition (CellTiter-Glo, 3 days) in A431; details: Homo sapiens, A-431, 72 h, 3 days after administration
How it was run: (§2)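 Growth inhibition was scored by CellTiter-Glo luminescence after 3-day compound exposure at various concentrations. Cells were plated at 5000/well the day before treatment: A431 in DMEM and HCC827 in RPMI, each with 10% FBS.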

[3] = system: HCC827-ASV cells (human EGFR exon 20 insertion mutant A769_D770insASV); assay: Cell growth inhibition (CellTiter-Glo, 3 days) in HCC827-ASV; details: 72 h, 3 days after administration
How it was run: as §1

HCC827 cells = assay: Cell growth inhibition (CellTiter-Glo, 3 days) in HCC827; details: Homo sapiens, 72 h, 3 days after administration
How it was run: as §2

Compound	GI50 [1] [nM]	GI50 [2] [nM]	GI50 (A431 cells) [nM]	GI50 [3] [nM]	GI50 (HCC827 cells) [nM]
C=CC(=O)N1CCC(Nc2cc3c(Nc4ccc(Oc5ccnc(N6CCCC(F)(F)C6)c5)cc4F)ncnc3cc2OC)CC1 [Example 219, 1-(4-((4-((4-((2-(3,3-difluoropiperidin-1-yl)pyridin-4-yl)oxy)-2-fluorophenyl)amino)-7-methoxyquinazolin-6-yl)amino)piperidin-1-yl)prop-2-en-1-one]	< 30	< 30	300 to 600	< 30	100 to 300
C=CC(=O)N1CCC(Nc2cc3c(Nc4ccc(Oc5ccnc(N6CCCC(C)(O)C6)c5)cc4F)ncnc3cc2OC)CC1 (centres unmarked) [Example 220, 1-(4-((4-((2-fluoro-4-((2-(3-hydroxy-3-methylpiperidin-1-yl)pyridin-4-yl)oxy)phenyl)amino)-7-methoxyquinazolin-6-yl)amino)piperidin-1-yl)prop-2-en-1-one]	< 30	< 30	600 to 1000	< 30	100 to 300
C=CC(=O)N1CCC(Nc2cc3c(Nc4ccc(Oc5ccnc(N6CCCC(C#N)C6)c5)cc4F)ncnc3cc2OC)CC1 (centres unmarked) [Example 221, 1-(4-(4-((6-((1-acryloylpiperidin-4-yl)amino)-7-methoxyquinazolin-4-yl)amino)-3-fluorophenoxy)pyridin-2-yl)piperidine-3-carbonitrile]	< 30	< 30	100 to 300	< 30	100 to 300
C=CC(=O)N1CCC(Nc2cc3c(Nc4ccc(Oc5ccnc(N6CCC[C@H](C)C6)c5)cc4F)ncnc3cc2OC)CC1 [Example 222, (S)-1-(4-((4-((2-fluoro-4-((2-(3-methylpiperidin-1-yl)pyridin-4-yl)oxy)phenyl)amino)-7-methoxyquinazolin-6-yl)amino)piperidin-1-yl)prop-2-en-1-one]	< 30	< 30	600 to 1000	< 30	60 to 100
C=CC(=O)N1CCC(Nc2cc3c(Nc4ccc(Oc5ccnc(N6CCN(C)C(=O)C6)c5)cc4F)ncnc3cc2OC)CC1 [Example 223, 4-(4-(4-((6-((1-acryloylpiperidin-4-yl)amino)-7-methoxyquinazolin-4-yl)amino)-3-fluorophenoxy)pyridin-2-yl)-1-methylpiperazin-2-one]	100 to 300	100 to 300	600 to 1000	100 to 300	300 to 600
C=CC(=O)N1CCC(Nc2cc3c(Nc4ccc(Oc5ccnc(N6CCN[C@H](C)C6)c5)cc4F)ncnc3cc2OC)CC1 [Example 224, (R)-1-(4-((4-((2-fluoro-4-((2-(3-methylpiperazin-1-yl)pyridin-4-yl)oxy)phenyl)amino)-7-methoxyquinazolin-6-yl)amino)piperidin-1-yl)prop-2-en-1-one]	300 to 600	600 to 1000	≥ 1000	600 to 1000	≥ 1000
C=CC(=O)N1CCC(Nc2cc3c(Nc4ccc(Oc5ccnc(N6CCN[C@@H](C)C6)c5)cc4F)ncnc3cc2OC)CC1 [Example 225, (S)-1-(4-((4-((2-fluoro-4-((2-(3-methylpiperazin-1-yl)pyridin-4-yl)oxy)phenyl)amino)-7-methoxyquinazolin-6-yl)amino)piperidin-1-yl)prop-2-en-1-one]	300 to 600	300 to 600	≥ 1000	300 to 600	≥ 1000
C=CC(=O)N1CCC(Nc2cc3c(Nc4ccc(Oc5ccnc(N6CCNC(C)(C)C6)c5)cc4F)ncnc3cc2OC)CC1 [Example 226, 1-(4-((4-((4-((2-(3,3-dimethylpiperazin-1-yl)pyridin-4-yl)oxy)-2-fluorophenyl)amino)-7-methoxyquinazolin-6-yl)amino)piperidin-1-yl)prop-2-en-1-one]	300 to 600	≥ 1000	≥ 1000	≥ 1000	≥ 1000
C=CC(=O)N1CCC(Nc2cc3c(Nc4ccc(Oc5ccnc(N6CCC[C@@H](OC)C6)c5)c(Cl)c4)ncnc3cc2OC)CC1 [Example 227, (R)-1-(4-((4-((3-chloro-4-((2-(3-methoxypiperidin-1-yl)pyridin-4-yl)oxy)phenyl)amino)-7-methoxyquinazolin-6-yl)amino)piperidin-1-yl)prop-2-en-1-one]	30 to 60	60 to 100	300 to 600	60 to 100	100 to 300

Results, then the compound that gave them:

GI50 [1] [nM]	GI50 [2] [nM]	GI50 (A431 cells) [nM]	GI50 [3] [nM]	GI50 (HCC827 cells) [nM]	Compound
100 to 300	60 to 100	≥ 1000	60 to 100	300 to 600	C=CC(=O)N1CCC(Nc2cc3c(Nc4ccc(Oc5ccnc(N6CCN(C)CC6)c5)c(Cl)c4)ncnc3cc2OC)CC1 [Example 228, 1-(4-((4-((3-chloro-4-((2-(4-methylpiperazin-1-yl)pyridin-4-yl)oxy)phenyl)amino)-7-methoxyquinazolin-6-yl)amino)piperidin-1-yl)prop-2-en-1-one]
60 to 100	100 to 300	300 to 600	100 to 300	100 to 300	C=CC(=O)N1CCC(Nc2cc3c(Nc4ccc(Oc5ccnc(N6CCC(O)CC6)c5)c(Cl)c4)ncnc3cc2OC)CC1 [Example 229, 1-(4-((4-((3-chloro-4-((2-(4-hydroxypiperidin-1-yl)pyridin-4-yl)oxy)phenyl)amino)-7-methoxyquinazolin-6-yl)amino)piperidin-1-yl)prop-2-en-1-one]
30 to 60	< 30	≥ 1000	< 30	300 to 600	C=CC(=O)N1CCC(Nc2cc3c(Nc4ccc(Oc5ccnc(N6CCC[C@@H](OC)C6)c5)cc4)ncnc3cc2OC)CC1 [Example 230, (R)-1-(4-((7-methoxy-4-((4-((2-(3-methoxypiperidin-1-yl)pyridin-4-yl)oxy)phenyl)amino)quinazolin-6-yl)amino)piperidin-1-yl)prop-2-en-1-one]
300 to 600	100 to 300	≥ 1000	100 to 300	≥ 1000	C=CC(=O)N1CCC(Nc2cc3c(Nc4ccc(Oc5ccnc(N6CCN(C)CC6)c5)cc4)ncnc3cc2OC)CC1 [Example 231, 1-(4-((7-methoxy-4-((4-((2-(4-methylpiperazin-1-yl)pyridin-4-yl)oxy)phenyl)amino)quinazolin-6-yl)amino)piperidin-1-yl)prop-2-en-1-one]
30 to 60	< 30	300 to 600	< 30	60 to 100	C=CC(=O)N1CCC(Nc2cc3c(Nc4ccc(Oc5ccnc(-c6cccc(C)c6)c5)cc4F)ncnc3cc2OC)CC1 [Example 234, 1-(4-((4-((2-fluoro-4-((2-(m-tolyl)pyridin-4-yl)oxy)phenyl)amino)-7-methoxyquinazolin-6-yl)amino)piperidin-1-yl)prop-2-en-1-one]
30 to 60	60 to 100	600 to 1000	30 to 60	60 to 100	C=CC(=O)N1CCC(Nc2cc3c(Nc4ccc(Oc5ccnc(-c6ccc(C)cc6)c5)cc4F)ncnc3cc2OC)CC1 [Example 235, 1-(4-((4-((2-fluoro-4-((2-(p-tolyl)pyridin-4-yl)oxy)phenyl)amino)-7-methoxyquinazolin-6-yl)amino)piperidin-1-yl)prop-2-en-1-one]
< 30	< 30	≥ 1000	< 30	100 to 300	C=CC(=O)N1CCC(Nc2cc3c(Nc4ccc(Oc5ccnc(-c6ccccn6)c5)cc4F)ncnc3cc2OC)CC1 [Example 236, 1-(4-((4-((4-([2,2′-bipyridin]-4-yloxy)-2-fluorophenyl)amino)-7-methoxyquinazolin-6-yl)amino)piperidin-1-yl)prop-2-en-1-one]
30 to 60	< 30	≥ 1000	60 to 100	300 to 600	C=CC(=O)N1CCC(Nc2cc3c(Nc4ccc(Oc5ccnc(-c6cccnc6)c5)cc4F)ncnc3cc2OC)CC1 [Example 237, 1-(4-((4-((4-([2,3′-bipyridin]-4-yloxy)-2-fluorophenyl)amino)-7-methoxyquinazolin-6-yl)amino)piperidin-1-yl)prop-2-en-1-one]
< 30	< 30	≥ 1000	< 30	100 to 300	C=CC(=O)N1CCC(Nc2cc3c(Nc4ccc(Oc5ccnc(-c6ccncc6)c5)cc4F)ncnc3cc2OC)CC1 [Example 238, 1-(4-((4-((4-([2,4′-bipyridin]-4-yloxy)-2-fluorophenyl)amino)-7-methoxyquinazolin-6-yl)amino)piperidin-1-yl)prop-2-en-1-one]
< 30	60 to 100	300 to 600	60 to 100	< 30	C=CC(=O)N1CCC(Nc2cc3c(Nc4ccc(Oc5ccnc(N6CC7CCCC7C6)c5)cc4F)ncnc3cc2OC)CC1 (centres unmarked) [Example 239, 1-(4-((4-((2-fluoro-4-((2-(hexahydrocyclopenta [c]pyrrol-2(1H)-yl)pyridin-4-yl)oxy)phenyl)amino)-7-methoxyquinazolin-6-yl)amino)piperidin-1-yl)prop-2-en-1-one]

— patent US20240398805A1, “QUINAZOLINE DERIVED COMPOUNDS AS EGFR INHIBITORS AND THEIR USES THEREOF” (ACCUTAR BIOTECHNOLOGY INC., priority 2021, published 2024)
